From PubChem BioAssay AID192 (DTP/NCI, 2004)
Several values for one entry are separate records, joined by “and”; a condition that tells them apart may be missing. Equal values may be shown once. Inconclusive results and toxic doses are left out.

Tested on: BDF1 mice, B16 melanoma ip, median survival T/C
Experiment: NCI In Vivo Anticancer Drug Screen. Data for tumor model B16 Melanoma (intraperitoneal) in B6D2F1 (BDF1) mice
Conditions: endpoint: median survival time, higher = longer survival
Procedure, shortened: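 Tumor-bearing mice received test compound or vehicle. Survival or tumor size was then measured in both groups. The treated-group figure was divided by the control-group figure.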

[1] = dose: 25.0 mg/kg/injection, schedule: Q01DX009 (ip), vehicle: Klucel (hydroxypropylcellulose) (HPC)
[2] = dose: 50.0 mg/kg/injection, schedule: Q01DX009 (ip), vehicle: Klucel (hydroxypropylcellulose) (HPC)
[3] = dose: 25.0 mg/kg/injection, schedule: Q01DX009 (ip), vehicle: saline with Tween-80
[4] = dose: 50.0 mg/kg/injection, schedule: Q01DX009 (ip), vehicle: saline with Tween-80
[5] = dose: 100.0 mg/kg/injection, schedule: Q01DX009 (ip), vehicle: saline with Tween-80
[6] = dose: 12.5 mg/kg/injection, schedule: Q01DX009 (ip), vehicle: Klucel (hydroxypropylcellulose) (HPC)
[7] = dose: 12.5 mg/kg/injection, schedule: Q01DX009 (ip), vehicle: water
[8] = dose: 6.25 mg/kg/injection, schedule: Q01DX009 (ip), vehicle: saline
[9] = dose: 12.5 mg/kg/injection, schedule: Q01DX009 (ip), vehicle: saline
[10] = dose: 12.5 mg/kg/injection, schedule: Q04DX003 (ip), vehicle: saline
[11] = dose: 100.0 mg/kg/injection, schedule: Q01DX009 (ip), vehicle: Klucel (hydroxypropylcellulose) (HPC)
[12] = dose: 200.0 mg/kg/injection, schedule: Q01DX009 (ip), vehicle: Klucel (hydroxypropylcellulose) (HPC)
[13] = dose: 50.0 mg/kg/injection, schedule: Q01DX009 (ip), vehicle: saline
[14] = dose: 200.0 mg/kg/injection, schedule: Q01DX009 (ip), vehicle: saline with Tween-80
[15] = dose: 25.0 mg/kg/injection, schedule: Q01DX009 (ip), vehicle: saline
[16] = dose: 25.0 mg/kg/injection, schedule: Q04DX003 (ip), vehicle: saline
[17] = dose: 50.0 mg/kg/injection, schedule: Q04DX003 (ip), vehicle: saline

Nc1nc(-c2ccccc2N=NN2CCCC2)nc2ccccc12
T/C [1]: 95 % of control | T/C [2]: 94 % of control

COc1cccc2c1C(=O)c1c(O)c3c(c(O)c1C2=O)C[C@@](O)(/C(C)=N\NC=O)C[C@@H]3OC1CC(N)C(O)C(C)O1 (stereo not given in full)
T/C (dose: 0.38 mg/kg/injection, schedule: Q01DX009 (ip), vehicle: saline): 112 % of control | T/C (dose: 0.75 mg/kg/injection, schedule: Q01DX009 (ip), vehicle: saline): 117 % of control | T/C (dose: 1.5 mg/kg/injection, schedule: Q01DX009 (ip), vehicle: saline): 150 % of control | T/C (dose: 3.0 mg/kg/injection, schedule: Q01DX009 (ip), vehicle: saline): 174 % of control | T/C (dose: 6.0 mg/kg/injection, schedule: Q01DX009 (ip), vehicle: saline): 216 % of control | T/C (dose: 12.0 mg/kg/injection, schedule: Q01DX009 (ip), vehicle: saline): 211 % of control

Cc1ccc(C)c(C(=O)CCCCl)c1
T/C [3]: 118 % of control | T/C [4]: 97 % of control | T/C [5]: 113 % of control

Cc1ccc(C)c(NC(=O)Nc2ccccc2Cl)c1
T/C (dose: 25.0 mg/kg/injection, schedule: Q01DX009 (ip), vehicle: gum acacia): 86 % of control | T/C (dose: 50.0 mg/kg/injection, schedule: Q01DX009 (ip), vehicle: gum acacia): 90 % of control | T/C (dose: 100.0 mg/kg/injection, schedule: Q01DX009 (ip), vehicle: gum acacia): 88 % of control | T/C (dose: 100.0 mg/kg/injection, schedule: Q04DX003 (ip), vehicle: gum acacia): 90 % of control

CC(C)C(=O)NNCc1ccccc1
T/C (dose: 6.25 mg/kg/injection, schedule: Q01DX009 (ip), vehicle: Klucel (hydroxypropylcellulose) (HPC)): 95 % of control | T/C [6]: 97 % of control | T/C [1]: 95 % of control | T/C [2]: 90 % of control

C1CC[N-]CC1.[Cl][Pt+2][Cl].[NH-]C1CC1
T/C (dose: 3.12 mg/kg/injection, schedule: Q01DX009 (ip), vehicle: water): 105 % of control | T/C (dose: 3.13 mg/kg/injection, schedule: Q01DX009 (ip), vehicle: water): 151 % of control | T/C (dose: 6.25 mg/kg/injection, schedule: Q01DX009 (ip), vehicle: water): 152 % of control | T/C [7]: 119 % of control

CC(=O)OC(CC(=O)CC(O)(C(F)(F)F)C(F)(F)F)(C(F)(F)F)C(F)(F)F
T/C (dose: 3.13 mg/kg/injection, schedule: Q01DX009 (ip), vehicle: saline): 102 % of control | T/C (dose: 3.13 mg/kg/injection, schedule: Q04DX003 (ip), vehicle: saline): 97 % of control | T/C [8]: 107 % of control | T/C (dose: 6.25 mg/kg/injection, schedule: Q04DX003 (ip), vehicle: saline): 100 % of control | T/C [9]: 92 % of control | T/C [10]: 100 % of control

CNC(=O)OCc1c(COC(=O)NC)c(-c2ccccc2)n(C)c1-c1ccccc1
T/C (dose: 3.12 mg/kg/injection, schedule: Q01DX009 (ip), vehicle: distilled water + Tween-80): 161 % of control | T/C (dose: 6.25 mg/kg/injection, schedule: Q01DX009 (ip), vehicle: distilled water + Tween-80): 159 % of control | T/C (dose: 12.5 mg/kg/injection, schedule: Q01DX009 (ip), vehicle: distilled water + Tween-80): 166 % of control | T/C (dose: 25.0 mg/kg/injection, schedule: Q01DX009 (ip), vehicle: distilled water + Tween-80): 206 % of control

CC[C@@H]1C[C@@H]2CN3CCc4c([nH]c5ccc(OC)cc45)C(C(=O)OC)(C2)C13
T/C [2]: 102 % of control | T/C [11]: 106 % of control | T/C [12]: 111 % of control

Nc1ncc(N)c(N)n1
T/C [13]: 102 % of control | T/C (dose: 100.0 mg/kg/injection, schedule: Q01DX009 (ip), vehicle: saline): 112 % of control | T/C (dose: 200.0 mg/kg/injection, schedule: Q01DX009 (ip), vehicle: saline): 108 % of control

O=C([CH-]C(=O)C(F)(F)F)c1ccccc1.O=C([CH-]C(=O)C(F)(F)F)c1ccccc1.O=C([CH-]C(=O)C(F)(F)F)c1ccccc1.O=C([CH-]C(=O)C(F)(F)F)c1ccccc1.[Eu+3].c1ccncc1
T/C [6]: 92 % of control and 96 % of control | T/C [1]: 88 % of control and 97 % of control | T/C [2]: 92 % of control and 101 % of control | T/C [11]: 93 % of control and 98 % of control | T/C [12]: 102 % of control and 107 % of control | T/C (dose: 400.0 mg/kg/injection, schedule: Q01DX009 (ip), vehicle: Klucel (hydroxypropylcellulose) (HPC)): 93 % of control and 98 % of control

COc1ccc2nonc2c1
T/C [3]: 107 % of control | T/C [4]: 95 % of control | T/C [5]: 91 % of control | T/C [14]: 101 % of control

CC(C)C(Br)C(=O)NCC(=O)NCC(=O)O (stereo not given)
T/C [14]: 91 % of control | T/C (dose: 400.0 mg/kg/injection, schedule: Q01DX009 (ip), vehicle: saline with Tween-80): 87 % of control

[Cu+2].[NH-]CC(=O)O.[NH-]CC(=O)O
T/C (dose: 2.5 mg/kg/injection, schedule: Q01DX009 (ip), vehicle: saline): 97 % of control | T/C (dose: 2.5 mg/kg/injection, schedule: Q04DX003 (ip), vehicle: saline with Tween-80): 121 % of control | T/C (dose: 5.0 mg/kg/injection, schedule: Q01DX009 (ip), vehicle: saline): 95 % of control and 102 % of control | T/C (dose: 5.0 mg/kg/injection, schedule: Q04DX003 (ip), vehicle: saline with Tween-80): 115 % of control | T/C (dose: 10.0 mg/kg/injection, schedule: Q01DX009 (ip), vehicle: saline): 95 % of control and 100 % of control | T/C (dose: 10.0 mg/kg/injection, schedule: Q04DX003 (ip), vehicle: saline with Tween-80): 100 % of control

CC1(O)Nc2nc3c(ncn3C3OC(CO)C(O)C3O)c(=O)n2C1O (stereo not given)
T/C [7]: 96 % of control | T/C (dose: 25.0 mg/kg/injection, schedule: Q01DX009 (ip), vehicle: water): 103 % of control | T/C (dose: 50.0 mg/kg/injection, schedule: Q01DX009 (ip), vehicle: water): 101 % of control | T/C (dose: 100.0 mg/kg/injection, schedule: Q01DX009 (ip), vehicle: water): 100 % of control | T/C (dose: 200.0 mg/kg/injection, schedule: Q01DX009 (ip), vehicle: water): 97 % of control | T/C (dose: 400.0 mg/kg/injection, schedule: Q01DX009 (ip), vehicle: water): 95 % of control

OCCN1CCN(CCCN2c3ccccc3C=Cc3ccccc32)CC1
T/C (dose: 3.12 mg/kg/injection, schedule: Q01DX009 (ip), vehicle: saline): 97 % of control | T/C (dose: 3.12 mg/kg/injection, schedule: Q04DX003 (ip), vehicle: saline): 105 % of control | T/C [8]: 110 % of control | T/C [9]: 100 % of control | T/C [10]: 107 % of control | T/C [15]: 95 % of control | T/C [16]: 122 % of control | T/C [13]: 95 % of control | T/C [17]: 115 % of control

COc1cc(OC)c(OC)cc1/C=C\c1ccc2ccccc2[n+]1C
T/C [8]: 93 % of control | T/C [9]: 100 % of control | T/C [15]: 97 % of control

O=C(O)C(O)C(O)C(=O)O.O=C(O)C(O)C(O)C(=O)O.[O]=[V].[O]=[V] (stereo not given)
T/C [9]: 94 % of control | T/C [10]: 100 % of control | T/C [15]: 87 % of control | T/C [16]: 100 % of control | T/C [17]: 86 % of control

CCCCCCCCCCCCCC[n+]1ccccc1
T/C (dose: 0.06 mg/kg/injection, schedule: Q01DX009 (ip), vehicle: saline with Tween-80): 86 % of control and 89 % of control | T/C (dose: 0.13 mg/kg/injection, schedule: Q01DX009 (ip), vehicle: saline with Tween-80): 90 % of control | T/C (dose: 0.25 mg/kg/injection, schedule: Q01DX009 (ip), vehicle: saline with Tween-80): 86 % of control | T/C (dose: 8.0 micrograms/kg/injection, schedule: Q01DX009 (ip), vehicle: saline): 88 % of control | T/C (dose: 15.0 micrograms/kg/injection, schedule: Q01DX009 (ip), vehicle: saline): 91 % of control | T/C (dose: 30.0 micrograms/kg/injection, schedule: Q01DX009 (ip), vehicle: saline): 94 % of control | T/C (dose: 60.0 micrograms/kg/injection, schedule: Q01DX009 (ip), vehicle: saline): 88 % of control

O=C(O)c1ccc(C(Cl)(Cl)Cl)cc1
T/C [3]: 105 % of control | T/C [4]: 103 % of control | T/C [5]: 98 % of control
